Measurements as given in the kinase profiling compilation of Christmann-Franck et al. (2016).

Key:
Experiment in all cases: radiometric filter-binding kinase assay, Kinase HotSpot
Settings in all cases: compound 0.5 µM; ATP 10 µM
[1] = test system: MKNK1 (human), Q9BUB5 [T385D; 165-205 del]
[2] = test system: FLT4 (human), P35916 [Q890H]
[3] = test system: MAP2K6 (human), P52564 [S207E/T211E]
[4] = test system: PRKCQ (human), Q04759 [P330L]
Sequence of PRKCQ (human), Q04759 [P330L] (Q04759 whole entry P330L, looked up): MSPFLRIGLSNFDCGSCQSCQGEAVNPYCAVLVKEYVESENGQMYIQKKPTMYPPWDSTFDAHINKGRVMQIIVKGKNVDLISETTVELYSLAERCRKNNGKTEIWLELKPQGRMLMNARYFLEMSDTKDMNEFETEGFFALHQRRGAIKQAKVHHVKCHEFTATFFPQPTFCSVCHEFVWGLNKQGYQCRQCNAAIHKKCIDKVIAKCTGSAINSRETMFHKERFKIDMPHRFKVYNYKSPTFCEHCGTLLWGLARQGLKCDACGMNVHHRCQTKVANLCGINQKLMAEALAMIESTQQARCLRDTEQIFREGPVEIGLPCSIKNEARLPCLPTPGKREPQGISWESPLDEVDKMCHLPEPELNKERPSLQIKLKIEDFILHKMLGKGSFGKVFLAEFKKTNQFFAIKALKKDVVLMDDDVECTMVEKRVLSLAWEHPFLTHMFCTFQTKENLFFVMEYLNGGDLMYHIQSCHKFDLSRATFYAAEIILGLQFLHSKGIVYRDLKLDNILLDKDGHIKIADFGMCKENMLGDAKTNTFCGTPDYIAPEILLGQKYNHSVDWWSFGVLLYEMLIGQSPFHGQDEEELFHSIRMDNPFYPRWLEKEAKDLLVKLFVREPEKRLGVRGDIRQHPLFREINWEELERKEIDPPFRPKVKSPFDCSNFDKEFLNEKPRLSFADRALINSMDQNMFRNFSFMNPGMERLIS

Sequence of FLT4 (human), P35916 [Q890H] (P35916 whole entry, looked up, stated change not applied): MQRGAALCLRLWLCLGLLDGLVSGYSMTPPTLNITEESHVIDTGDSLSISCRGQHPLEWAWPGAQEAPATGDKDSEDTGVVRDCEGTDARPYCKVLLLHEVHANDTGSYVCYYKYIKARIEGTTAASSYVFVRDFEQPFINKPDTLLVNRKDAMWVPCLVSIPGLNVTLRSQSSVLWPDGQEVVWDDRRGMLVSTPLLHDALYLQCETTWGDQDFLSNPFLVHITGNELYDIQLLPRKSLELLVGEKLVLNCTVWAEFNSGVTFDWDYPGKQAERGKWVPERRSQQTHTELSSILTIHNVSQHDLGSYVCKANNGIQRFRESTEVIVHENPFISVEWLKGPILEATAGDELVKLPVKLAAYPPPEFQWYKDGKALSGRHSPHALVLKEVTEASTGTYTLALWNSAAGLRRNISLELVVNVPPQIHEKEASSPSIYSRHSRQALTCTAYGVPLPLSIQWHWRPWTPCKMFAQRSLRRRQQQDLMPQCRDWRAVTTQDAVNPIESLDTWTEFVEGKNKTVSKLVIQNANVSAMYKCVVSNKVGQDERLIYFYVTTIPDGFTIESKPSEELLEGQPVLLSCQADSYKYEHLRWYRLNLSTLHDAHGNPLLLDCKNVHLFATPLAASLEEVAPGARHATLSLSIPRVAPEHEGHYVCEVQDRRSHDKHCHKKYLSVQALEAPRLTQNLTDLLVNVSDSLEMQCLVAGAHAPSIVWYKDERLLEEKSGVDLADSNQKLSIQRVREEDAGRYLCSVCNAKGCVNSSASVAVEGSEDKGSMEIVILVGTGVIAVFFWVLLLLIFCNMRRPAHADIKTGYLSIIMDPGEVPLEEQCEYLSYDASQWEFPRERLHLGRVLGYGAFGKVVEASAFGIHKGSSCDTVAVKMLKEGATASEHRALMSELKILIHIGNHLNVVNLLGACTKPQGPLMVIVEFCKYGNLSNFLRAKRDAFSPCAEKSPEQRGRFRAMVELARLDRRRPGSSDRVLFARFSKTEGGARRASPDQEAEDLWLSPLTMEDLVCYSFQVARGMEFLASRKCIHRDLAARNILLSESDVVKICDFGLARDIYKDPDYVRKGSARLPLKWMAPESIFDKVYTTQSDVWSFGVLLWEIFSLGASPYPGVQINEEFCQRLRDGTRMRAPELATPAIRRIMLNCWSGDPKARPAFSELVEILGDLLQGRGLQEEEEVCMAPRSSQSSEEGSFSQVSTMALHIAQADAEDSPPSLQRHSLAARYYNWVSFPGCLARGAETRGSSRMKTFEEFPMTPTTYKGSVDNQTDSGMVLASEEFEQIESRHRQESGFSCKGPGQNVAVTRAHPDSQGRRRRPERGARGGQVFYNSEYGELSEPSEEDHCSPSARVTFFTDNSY
Sequence of MKNK1 (human), Q9BUB5 [T385D; 165-205 del] (Q9BUB5 whole entry, looked up, stated change not applied): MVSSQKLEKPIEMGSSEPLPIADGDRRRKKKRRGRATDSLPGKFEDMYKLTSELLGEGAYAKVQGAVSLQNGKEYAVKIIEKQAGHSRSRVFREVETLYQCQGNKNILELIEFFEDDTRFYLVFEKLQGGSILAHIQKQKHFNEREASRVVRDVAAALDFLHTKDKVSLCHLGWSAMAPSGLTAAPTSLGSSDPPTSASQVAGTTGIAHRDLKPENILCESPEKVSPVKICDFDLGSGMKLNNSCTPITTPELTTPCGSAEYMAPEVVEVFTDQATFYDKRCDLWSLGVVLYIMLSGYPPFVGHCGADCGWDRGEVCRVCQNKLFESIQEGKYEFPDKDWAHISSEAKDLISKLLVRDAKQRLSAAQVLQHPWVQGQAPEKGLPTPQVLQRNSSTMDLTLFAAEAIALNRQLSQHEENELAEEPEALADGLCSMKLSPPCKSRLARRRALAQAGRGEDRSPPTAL
Sequence of MAP2K6 (human), P52564 [S207E/T211E] (P52564 whole entry S207E/T211E, looked up): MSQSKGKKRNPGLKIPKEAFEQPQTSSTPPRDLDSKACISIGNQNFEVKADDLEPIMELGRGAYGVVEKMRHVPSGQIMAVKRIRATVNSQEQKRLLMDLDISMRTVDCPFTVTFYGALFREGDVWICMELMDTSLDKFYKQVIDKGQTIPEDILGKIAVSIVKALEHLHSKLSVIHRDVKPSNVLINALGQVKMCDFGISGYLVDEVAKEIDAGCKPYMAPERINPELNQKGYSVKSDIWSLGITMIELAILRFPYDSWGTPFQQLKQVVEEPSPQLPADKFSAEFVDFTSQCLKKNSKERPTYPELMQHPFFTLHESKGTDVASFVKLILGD

Row | SMILES | residual activity [1] [%] | residual activity [2] [%] | residual activity [3] [%] | residual activity [4] [%]
1 | N#C/C(=C1/Nc2ccccc2S1)c1ccnc(NCCc2cccnc2)n1 | 90.2 | 86.1 | 92.5 | 104
2 | CC#CC(=O)Nc1cc2c(Nc3ccc(F)c(Cl)c3)ncnc2cn1 | 89.5 | 92.8 | 100 | 89.3
3 | Nc1nnc2[nH]c3ccccc3nc1-2 | 97.4 | 117 | 100 | 89.7
4 | CCN1/C(=C/C(C)=O)Sc2ccc(OC)cc21 | 119 | 99.7 | 86.7 | 95.9
5 | COc1ccc(OC)c2c(=S)c3ccccc3[nH]c12 | 115 | 98.1 | 89.9 | 98.9
6 | O=c1cc(N2CCOCC2)oc2c(-c3ccccc3)cccc12 | 103 | 96.4 | 97.5 | 112
7 | CC(=O)c1ccc(N2CCOCC2)cc1O | 102 | 112 | 94.2 | 99.5
8 | O=C1NC(=O)/C(=C\c2ccc3nccnc3c2)S1 | 96.5 | 108 | 91.2 | 92.8
9 | c1ccc(-c2n[nH]cc2-c2ccnc3ccccc23)nc1 | 75.9 | 92.2 | 138 | 115
10 | COc1cc2c(Nc3ccc(Br)cc3F)ncnc2cc1OCC1CCN(C)CC1 | 49.3 | 16.1 | 96.2 | 100
11 | O=C1NC(=O)c2c1c1c3ccccc3[nH]c1c1[nH]c3cc(Br)ccc3c21 | 81.5 | 28 | 94.2 | 93.1
12 | Cc1ccc(S(=O)(=O)/C=C/C#N)cc1 | 99.4 | 96.5 | 98.4 | 100
13 | COc1ccc2c(c[n+](C)c3c4cc5c(cc4ccc23)OCO5)c1OC | 102 | 97.6 | 95 | 99.9
14 | COc1cc2c(cc1OC)-c1[nH]nc(Nc3cccc(F)c3)c1C2 | 89.8 | 82.6 | 87 | 108
15 | O=c1cc(N2CCOCC2)oc2c1ccc1ccccc12 | 95 | 112 | 94.1 | 90.6
16 | O=c1cc(N2CCNCC2)oc2c(-c3ccccc3)cccc12 | 107 | 104 | 96.2 | 117
17 | CCN(CC)CCNC(=O)c1c(C)[nH]c(/C=C2\C(=O)Nc3ccc(Cl)cc32)c1C | 75.4 | 12.1 | 86.2 | 105
18 | Cn1sc(=O)n(Cc2ccccc2)c1=O | 98.6 | 86.8 | 94.9 | 100
19 | CO[C@H]1CC2CC[C@@H](C)[C@@](O)(O2)C(=O)C(=O)N2CCCC[C@H]2C(=O)OC([C@H](C)C[C@@H]2CC[C@@H](O)[C@H](OC)C2)CC(=O)[C@H](C)/C=C(\C)[C@@H](O)[C@@H](OC)C(=O)[C@H](C)C[C@H](C)/C=C/C=C/C=C/1C (stereo not given in full) | 101 | 116 | 107 | 126
20 | O=C1NC(=O)C(c2cn(CCCn3ccnc3)c3ccccc23)=C1Nc1ccccc1 | 99.3 | 95.8 | 103 | 37.2
21 | CCN(CC)CCNC(=O)c1c(C)[nH]c(/C=C2\C(=O)Nc3ccc(F)cc32)c1C | 99.3 | – | 75.9 | 63.5
22 | O=S(=O)(c1cccc2cnccc12)N1CCCNCC1 | 91.8 | – | 95.6 | 89.9

Other lines, results leading:

Row | residual activity [1] [%] | residual activity [2] [%] | residual activity [3] [%] | residual activity [4] [%] | SMILES
23 | 103 | 87.3 | 96.4 | 105 | O=C1Nc2ccc(Cl)cc2/C1=C/c1cc(Cl)c(O)c(Cl)c1
24 | 110 | 103 | 92.7 | 97.3 | CC(C)c1nn(-c2c(Cl)cccc2Cl)c2nc(Cc3ccc(OCCO)cc3)nc(O)c12
25 | 104 | 90.4 | 94.9 | 101 | COc1cc2ncc(-c3ccccc3)nc2cc1OC
26 | 105 | 55.1 | 91.9 | 107 | Cc1[nH]c(/C=C2\C(=O)Nc3ccc(S(=O)(=O)N(C)c4cccc(Cl)c4)cc32)c(C)c1C(=O)N1CCN(C)CC1
27 | 90 | 100 | 96.5 | 103 | Cc1ccc(NC(=O)c2ccc(CN3CCN(C)CC3)cc2)cc1Nc1nc(-c2cccnc2)cs1
28 | 90.9 | 38 | 90.5 | 114 | Nc1nc(Nc2ccc(S(N)(=O)=O)cc2)nn1C(=O)c1c(F)cccc1F
29 | 97.1 | 91.3 | 80.5 | 111 | CSc1nc(-c2ccc(F)cc2)c(-c2ccnc(NC(C)c3ccccc3)c2)[nH]1 (stereo not given)
30 | 41.9 | 92.2 | 90.1 | 85.9 | COc1cc2ncnc(Nc3ccc(F)c(Cl)c3)c2cc1OCCCN1CCOCC1
31 | 99.1 | 80.7 | 92.5 | 119 | CC(C)[C@H](CO)Nc1nc(Nc2cc(N)cc(Cl)c2)c2ncn(C(C)C)c2n1
32 | 64.7 | 64.4 | 93.6 | 91.2 | c1ccc(-c2cnc(Nc3ccc(OCCN4CCCC4)cc3)s2)cc1
33 | 23.4 | 3.75 | 62.7 | 15.1 | Nc1nc(Nc2ccc(S(N)(=O)=O)cc2)nn1C(=S)Nc1c(F)cccc1F
34 | 102 | 101 | 109 | 115 | Oc1ccc(-c2nc(-c3ccc(F)cc3)c(-c3ccncc3)[nH]2)cc1
35 | 93.5 | 44.9 | 93.2 | 82.3 | Cc1cc(Nc2nc(-c3ccccc3)nc3ccccc23)n[nH]1
36 | 95.2 | 38.5 | 106 | 102 | CCCNC(=O)Nc1ccc(Oc2ncnc3cc(OC)c(OC)cc23)cc1Cl
37 | 106 | 89.8 | 98.1 | – | N#Cc1c(NC(=O)c2cccc3ccccc23)sc2c1CCCC2
38 | 102 | – | 98.3 | 93.1 | Cc1ccc(Nc2nccc(N(C)c3ccc4c(C)n(C)nc4c3)n2)cc1S(N)(=O)=O
39 | – | – | 94.2 | 77.2 | C#Cc1cccc(Nc2ncnc3cc(OCCOC)c(OCCOC)cc23)c1
